Data: paper PMC9558304, “Biomimetic Mineralization of Iron-Fumarate Nanoparticles for Protective Encapsulation and Intracellular Delivery of Proteins” (Chemistry of Materials, 2022)

Target: T1, horseradish peroxidase (HRP) (Armoracia rusticana, UniProt P00433)
T1 construct: gene PRXC1A
T1 sequence (P00433 31-338): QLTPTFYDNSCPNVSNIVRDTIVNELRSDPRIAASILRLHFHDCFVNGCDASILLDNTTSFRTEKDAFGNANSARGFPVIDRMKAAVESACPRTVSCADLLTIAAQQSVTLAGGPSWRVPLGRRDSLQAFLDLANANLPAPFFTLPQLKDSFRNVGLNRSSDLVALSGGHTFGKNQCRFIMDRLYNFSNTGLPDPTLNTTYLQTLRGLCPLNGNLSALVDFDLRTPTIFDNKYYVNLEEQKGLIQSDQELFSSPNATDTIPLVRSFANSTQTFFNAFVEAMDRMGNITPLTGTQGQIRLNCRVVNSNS
Assay: fluorescence plate reader ([…] nm), Michaelis-Menten fit
Type: biochemical
Conditions: free HRP added to degraded Fe-fum NPs (citrate buffer); 2500 μM H2O2; Amplex UltraRed 0-100 μM

Km: 182 ± 73 µM
Substance: Amplex UltraRed
